Source: patent US20260000692A1, “Substituted N-(Pyridin-2-yl)Acetamide Derivatives as CDK12/13 Inhibitors” (Aurigene Oncology Limited, priority 2022, published 2026)
Read-outs that look alike come from different tables or passages of the source.

Target: CDK12 (Homo sapiens, UniProt Q9NYV4)
Test: Biochemical assay for CDK12 (LANCE TR-FRET, IC50 determination)
Conditions: for IC50: CDK12, IC50 class; for inhibition at 10 µM: read-out: CDK12 % Inhibition @ 10 μM
Experimental: Biochemical Assay for CDK12 (IC50 Determination):
The inhibitory activity of the test compounds was assessed by the LANCE TR-FRET assay, which detects the ATP-dependent phosphorylation of an ULight-4E-BP1 (Thr37/Thr46) substrate peptide (100 nM) by CDK12 (30 nM). Briefly, the enzyme reaction was run in reaction buffer (25 mM HEPES (pH 7.5), 10 mM MgCl2, […], 0.01% Triton x, 1 mM DTT). The assay was performed in 384-well plate format. The end concentration of the ATP substrate was […], and that of the ULight-4E-BP1 (Thr37/Thr46) substrate peptide was 100 nM, and of CDK12 was 30 nM. Pre-incubation of the compound and enzyme was performed for 60 min at room temperature. After 60 min incubation at room temperature, the reaction was terminated by the addition of 40 mM EDTA and 0.5 nM Eu-labeled anti-phospho-eIF4E-binding protein (Thr37/46) antibody in LANCE detection buffer. Time-resolved fluorescence (excitation, 320 nm; emission donor, 615 nm; emission acceptor, 665 nm) was monitored by using 2030 multilabel reader Victor5 (PerkinElmer). The Fluorescence emission of the samples were measured and the ratio was plotted against the compound concentration to generate the dose response curve. The IC50 values were derived by fitting a sigmoidal dose-response curve to a plot of assay readout over inhibitor concentration. All fits were computed with the program Prism 5.03 (Graph Pad Software, San Diego, CA). The % inhibition values at […] were calculated with respect to enzyme activity.

Sequence of CDK12 (Q9NYV4 whole entry): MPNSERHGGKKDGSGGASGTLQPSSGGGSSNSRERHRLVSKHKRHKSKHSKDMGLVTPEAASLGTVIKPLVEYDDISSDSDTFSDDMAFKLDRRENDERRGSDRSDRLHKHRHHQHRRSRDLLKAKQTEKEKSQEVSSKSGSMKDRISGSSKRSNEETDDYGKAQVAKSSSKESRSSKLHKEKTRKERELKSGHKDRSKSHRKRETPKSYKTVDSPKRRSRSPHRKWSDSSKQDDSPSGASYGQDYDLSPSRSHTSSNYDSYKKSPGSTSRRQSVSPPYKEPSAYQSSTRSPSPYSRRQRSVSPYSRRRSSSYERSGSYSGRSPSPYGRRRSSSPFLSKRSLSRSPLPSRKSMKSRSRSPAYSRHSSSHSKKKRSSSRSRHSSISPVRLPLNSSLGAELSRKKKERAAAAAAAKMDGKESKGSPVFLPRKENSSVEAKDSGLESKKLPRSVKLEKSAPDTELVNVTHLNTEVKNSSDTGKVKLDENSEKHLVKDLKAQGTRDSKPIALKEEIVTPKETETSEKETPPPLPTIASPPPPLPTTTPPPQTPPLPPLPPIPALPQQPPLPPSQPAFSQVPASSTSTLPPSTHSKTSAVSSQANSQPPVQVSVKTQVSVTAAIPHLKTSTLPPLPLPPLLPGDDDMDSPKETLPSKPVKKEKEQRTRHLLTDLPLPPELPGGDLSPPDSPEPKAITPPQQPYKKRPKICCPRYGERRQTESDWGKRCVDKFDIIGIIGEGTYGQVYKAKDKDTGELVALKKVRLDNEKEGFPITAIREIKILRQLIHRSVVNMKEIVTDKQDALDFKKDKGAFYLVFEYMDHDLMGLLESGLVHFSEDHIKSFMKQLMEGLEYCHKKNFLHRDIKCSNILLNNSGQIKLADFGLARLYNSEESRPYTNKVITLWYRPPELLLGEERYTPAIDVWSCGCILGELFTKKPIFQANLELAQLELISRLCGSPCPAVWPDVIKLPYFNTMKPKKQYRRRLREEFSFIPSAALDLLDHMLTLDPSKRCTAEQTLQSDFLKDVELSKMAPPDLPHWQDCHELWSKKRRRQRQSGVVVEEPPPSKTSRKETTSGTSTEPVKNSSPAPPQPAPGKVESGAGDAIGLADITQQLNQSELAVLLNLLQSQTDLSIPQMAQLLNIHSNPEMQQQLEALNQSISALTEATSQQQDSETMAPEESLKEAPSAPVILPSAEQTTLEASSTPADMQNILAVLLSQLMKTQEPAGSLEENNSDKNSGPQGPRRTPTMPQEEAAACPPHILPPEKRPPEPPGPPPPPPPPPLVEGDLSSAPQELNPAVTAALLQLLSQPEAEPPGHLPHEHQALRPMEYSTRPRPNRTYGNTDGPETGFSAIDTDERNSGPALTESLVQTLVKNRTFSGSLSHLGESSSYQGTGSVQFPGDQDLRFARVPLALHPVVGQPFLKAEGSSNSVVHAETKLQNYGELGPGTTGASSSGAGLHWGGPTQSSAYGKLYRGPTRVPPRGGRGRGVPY
Sequence of CDK12 (O75909 whole entry partner): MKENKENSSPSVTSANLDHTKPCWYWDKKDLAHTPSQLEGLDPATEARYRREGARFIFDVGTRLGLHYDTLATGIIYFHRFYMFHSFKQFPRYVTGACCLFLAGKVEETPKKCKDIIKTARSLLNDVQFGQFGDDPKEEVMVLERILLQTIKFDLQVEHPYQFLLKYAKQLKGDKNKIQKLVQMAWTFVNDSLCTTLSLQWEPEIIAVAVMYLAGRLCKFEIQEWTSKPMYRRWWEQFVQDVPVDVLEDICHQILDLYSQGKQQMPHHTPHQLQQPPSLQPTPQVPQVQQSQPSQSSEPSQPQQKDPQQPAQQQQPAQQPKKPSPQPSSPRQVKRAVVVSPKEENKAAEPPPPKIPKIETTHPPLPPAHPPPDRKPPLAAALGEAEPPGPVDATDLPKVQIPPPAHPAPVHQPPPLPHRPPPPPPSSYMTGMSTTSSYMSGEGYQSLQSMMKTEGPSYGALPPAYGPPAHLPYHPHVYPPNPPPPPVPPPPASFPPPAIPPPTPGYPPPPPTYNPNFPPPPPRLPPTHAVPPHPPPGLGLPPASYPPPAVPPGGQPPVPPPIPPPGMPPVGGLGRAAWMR

Compound	IC50 (read-out: IC50 μM (in range)) [µM]	inhibition at 10 µM (compound at 10 μM) [%]	further results
CN1CC[C@H](Oc2cc(NC(=O)Cc3ccc(C4CCN(C#N)CC4)nc3)ncc2Cl)C1 [Compound 118, (S)-N-(5-chloro-4-((1-methylpyrrolidin-3-yl)oxy)pyridin-2-yl)-2-(6-(1-cyanopiperidin-4-yl)pyridin-3-yl)acetamide]	> 0.1	81	–
COc1cc(NC(=O)Cc2ccc(-c3cc(N4CCC(C)(O)CC4)cc(C#N)n3)nc2)ncc1Cl [Compound 192, N-(5-chloro-4-methoxypyridin-2-yl)-2-(6′-cyano-4′-(4-hydroxy-4-methylpiperidin-1-yl)-[2,2′-bipyridin]-5-yl)acetamide]	0.01 to 0.1	88	–
CNC(=O)C(C)Oc1cc(NC(=O)Cc2ccc(C3CCN(C#N)CC3)nc2)ncc1Cl (single isomer, unassigned) [Compound 83, 2-((5-chloro-2-(2-(6-(1-cyanopiperidin-4-yl)pyridin-3-yl)acetamido)pyridin-4-yl)oxy)-N-methylpropanamide]	0.01 to 0.1	84	–
COc1cc(NC(=O)Cc2ccc(N3CCN(C#N)CC3)nc2)ncc1Cl [Compound 134, N-(5-chloro-4-methoxypyridin-2-yl)-2-(6-(4-cyanopiperazin-1-yl)pyridin-3-yl)acetamide]	0.01 to 0.1	82	–
COc1cc(NC(=O)Cc2ccc(-c3cccc(C#N)n3)cc2)ncc1Cl [Compound 152, N-(5-chloro-4-methoxypyridin-2-yl)-2-(4-(6-cyanopyridin-2-yl)phenyl)acetamide]	> 0.1	–	–
CN(C)C(=O)Oc1cc(NC(=O)Cc2ccc(C3=CCN(C#N)CC3)nc2)ncc1Cl [Compound 100, 5-chloro-2-(2-(1′-cyano-1′,2′,3′,6′-tetrahydro-[2,4′-bipyridin]-5-yl)acetamido)pyridin-4-yl dimethylcarbamate]	–	–	IC50 (IC50 μM (in range)): 0.01 to 0.1 µM; inhibition at 10 µM: 77%
CN1CC[C@@H](Oc2cc(NC(=O)Cc3ccc(C4CCN(C#N)CC4)nc3)ncc2Cl)C1 [Compound 119, (R)-N-(5-chloro-4-((1-methylpyrrolidin-3-yl)oxy)pyridin-2-yl)-2-(6-(1-cyanopiperidin-4-yl)pyridin-3-yl)acetamide]	> 0.1	78	–
COc1cc(NC(=O)Cc2ccc(-c3cc(C(C)(C)O)cc(C#N)n3)nc2)ncc1Cl [Compound 175, N-(5-chloro-4-methoxypyridin-2-yl)-2-(6′-cyano-4′-(2-hydroxypropan-2-yl)-[2,2′-bipyridin]-5-yl)acetamide]	0.01 to 0.1	97	–
CN(C)C(=O)Oc1cc(NC(=O)Cc2ccc(C3CCN(C#N)CC3)nc2)ncc1Cl [Compound 101, 5-chloro-2-(2-(6-(1-cyanopiperidin-4-yl)pyridin-3-yl)acetamido)pyridin-4-yl dimethylcarbamate]	–	–	IC50 (IC50 μM (in range)): > 0.1 µM; inhibition at 10 µM: 86%
N#CN1CCC(c2ccc(CC(=O)Nc3cc(O[C@H]4CCOC4)c(Cl)cn3)cn2)CC1 [Compound 99, (S)-N-(5-chloro-4-((tetrahydrofuran-3-yl)oxy)pyridin-2-yl)-2-(6-(1-cyanopiperidin-4-yl)pyridin-3-yl)acetamide]	0.01 to 0.1	95	–
COc1cc(NC(=O)Cc2ccc(-c3cc(O[C@H]4CCOC4)cc(C#N)n3)nc2)ncc1Cl [Compound 197, (S)-N-(5-chloro-4-methoxypyridin-2-yl)-2-(6′-cyano-4′-((tetrahydrofuran-3-yl)oxy)-[2,2′-bipyridin]-5-yl)acetamide]	0.01 to 0.1	–	CDK12 % Inhibition @ 10 μM (compound at 10 μM, 10 µM): 87%
CNC(=O)C(C)Oc1cc(NC(=O)Cc2ccc(C3CCCN(C#N)C3)nc2)ncc1Cl (single isomer, unassigned) [Compound 87, 2-((5-chloro-2-(2-(6-(1-cyanopiperidin-3-yl)pyridin-3-yl)acetamido)pyridin-4-yl)oxy)-N-methylpropanamide]	> 0.1	–	CDK12 % Inhibition @ 10 μM (compound at 10 μM, 10 µM): 85%
COc1cc(NC(=O)Cc2ccc(C3=CCCN(C#N)C3)cn2)ncc1Cl [Compound 111, N-(5-chloro-4-methoxypyridin-2-yl)-2-(1′-cyano-1′,2′,5′,6′-tetrahydro-[3,3′-bipyridin]-6-yl)acetamide]	0.01 to 0.1	94	–
CC(CN(C)C)Oc1cc(NC(=O)Cc2ccc(C3=CCCN(C#N)C3)nc2)ncc1Cl (centres unmarked) [Compound 42, N-(5-chloro-4-((1-(dimethylamino)propan-2-yl)oxy)pyridin-2-yl)-2-(1′-cyano-1′,2′,5′,6′-tetrahydro-[2,3′-bipyridin]-5-yl)acetamide]	> 0.1	116	–
COc1cc(NC(=O)Cc2ccc(-c3cc(OC4CCN(C)CC4F)cc(C#N)n3)nc2)ncc1Cl (centres unmarked) [Compound 198, N-(5-chloro-4-methoxypyridin-2-yl)-2-(6′-cyano-4′-((3-fluoro-1-methylpiperidin-4-yl)oxy)-[2,2′-bipyridin]-5-yl)acetamide]	0.01 to 0.1	100	–
COc1cc(NC(=O)Cc2ccc(-c3cc(O[C@H]4CCOC4)cc(C#N)n3)nc2)ncc1Cl [Compound 196, (S)-N-(5-chloro-4-methoxypyridin-2-yl)-2-(6′-cyano-4′-((tetrahydrofuran-3-yl)oxy)-[2,2′-bipyridin]-5-yl)acetamide]	0.01 to 0.1	89	–
COc1cc(NC(=O)Cc2ccc(C3=CCN(C#N)C(C)C3)nc2)ncc1Cl (single isomer, unassigned) [Compound 67, N-(5-chloro-4-methoxypyridin-2-yl)-2-(1′-cyano-2′-methyl-1′,2′,3′,6′-tetrahydro-[2,4′-bipyridin]-5-yl)acetamide]	0.01 to 0.1	–	CDK12 % Inhibition @ 10 μM (compound at 10 μM, 10 µM): 86%

Now from value to molecule, other results behind:

IC50 (read-out: IC50 μM (in range)) [µM]	inhibition at 10 µM (compound at 10 μM) [%]	Compound	further results
< 0.01	–	CNC(=O)C(C)Oc1cc(NC(=O)Cc2ccc(C3CCN(C#N)CC3)nc2)ncc1Cl (single isomer, unassigned) [Compound 84, 2-((5-chloro-2-(2-(6-(1-cyanopiperidin-4-yl)pyridin-3-yl)acetamido)pyridin-4-yl)oxy)-N-methylpropanamide]	CDK12 % Inhibition @ 10 μM (compound at 10 μM): 84%
< 0.01	89	N#CN1CCC=C(c2ccc(CC(=O)Nc3cc(OC4CCOCC4)c(Cl)cn3)cn2)C1 [Compound 61, N-(5-chloro-4-((tetrahydro-2H-pyran-4-yl)oxy)pyridin-2-yl)-2-(1′-cyano-1′,2′,5′,6′-tetrahydro-[2,3′-bipyridin]-5-yl)acetamide]	–
< 0.01	90	N#CN1CCC=C(c2ccc(CC(=O)Nc3ccc(C4CC4)cn3)cn2)C1 [Compound 106, 2-(1′-cyano-1′,2′,5′,6′-tetrahydro-[2,3′-bipyridin]-5-yl)-N-(5-cyclopropylpyridin-2-yl)acetamide]	–
< 0.01	78	CNC(=O)C(C)Oc1cc(NC(=O)Cc2ccc(C3=CCCN(C#N)C3)nc2)ncc1Cl (single isomer, unassigned) [Compound 57, 2-((5-chloro-2-(2-(1′-cyano-1′,2′,5′,6′-tetrahydro-[2,3′-bipyridin]-5-yl)acetamido)pyridin-4-yl)oxy)-N-methylpropanamide]	–
< 0.01	87	CNC(=O)[C@H](C)Oc1cc(NC(=O)Cc2ccc(-c3cccc(C#N)n3)nc2)ncc1Cl [Compound 190, 2-((5-chloro-2-(2-(6′-cyano-[2,2′-bipyridin]-5-yl)acetamido)pyridin-4-yl)oxy)-N-methylpropanamide]	–
< 0.01	93	N#CN1CC=C(c2ccc(CC(=O)Nc3cc(O[C@H]4CCOC4)c(Cl)cn3)cn2)CC1 [Compound 27, (S)-N-(5-chloro-4-((tetrahydrofuran-3-yl)oxy)pyridin-2-yl)-2-(1′-cyano-1′,2′,3′,6′-tetrahydro-[2,4′-bipyridin]-5-yl)acetamide]	–
< 0.01	92	N#CN1CC=C(c2ccc(CC(=O)Nc3cc(C4(O)COC4)c(Cl)cn3)cn2)CC1 [Compound 17, N-(5-chloro-4-(3-hydroxyoxetan-3-yl)pyridin-2-yl)-2-(1′-cyano-1′,2′,3′,6′-tetrahydro-[2,4′-bipyridin]-5-yl)acetamide]	–
< 0.01	99	N#CN1CC=C(c2ccc(CC(=O)Nc3cc(O[C@@H]4CCOC4)c(Cl)cn3)cn2)CC1 [Compound 26, (R)-N-(5-chloro-4-((tetrahydrofuran-3-yl)oxy)pyridin-2-yl)-2-(1′-cyano-1′,2′,3′,6′-tetrahydro-[2,4′-bipyridin]-5-yl)acetamide]	–
< 0.01	82	COc1cc(NC(=O)Cc2ccc(C3=CCN(C#N)CC3)nc2)ncc1Cl [Compound 8, N-(5-chloro-4-methoxypyridin-2-yl)-2-(1′-cyano-1′,2′,3′,6′-tetrahydro-[2,4′-bipyridin]-5-yl)acetamide]	–
< 0.01	84	CN1CCC[C@@H](Oc2cc(NC(=O)Cc3ccc(C4=CCN(C#N)CC4)nc3)ncc2Cl)C1 [Compound 32, (R)-N-(5-chloro-4-((1-methylpiperidin-3-yl)oxy)pyridin-2-yl)-2-(1′-cyano-1′,2′,3′,6′-tetrahydro-[2,4′-bipyridin]-5-yl)acetamide]	–
